# Measured values reported in ChEMBL document CHEMBL1201862, “PubChem BioAssay data set” (2004).
# Activity calls are given as the source filed them.
# Key:
# Estrogen receptor beta = Estrogen receptor beta (Homo sapiens, UniProt Q92731); assay: ERβ–SRC-3 coactivator interaction inhibitors, confirmation, orthogonal assay, biochemical, ELISA, streptavidin-HRP readout (AID 1060)
# Estrogen receptor = molecular target: T1, Estrogen receptor (Homo sapiens, UniProt P03372);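 note: potency for inhibiting coactivator peptide recruitment to the receptor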
# T1 sequence (P03372 whole entry): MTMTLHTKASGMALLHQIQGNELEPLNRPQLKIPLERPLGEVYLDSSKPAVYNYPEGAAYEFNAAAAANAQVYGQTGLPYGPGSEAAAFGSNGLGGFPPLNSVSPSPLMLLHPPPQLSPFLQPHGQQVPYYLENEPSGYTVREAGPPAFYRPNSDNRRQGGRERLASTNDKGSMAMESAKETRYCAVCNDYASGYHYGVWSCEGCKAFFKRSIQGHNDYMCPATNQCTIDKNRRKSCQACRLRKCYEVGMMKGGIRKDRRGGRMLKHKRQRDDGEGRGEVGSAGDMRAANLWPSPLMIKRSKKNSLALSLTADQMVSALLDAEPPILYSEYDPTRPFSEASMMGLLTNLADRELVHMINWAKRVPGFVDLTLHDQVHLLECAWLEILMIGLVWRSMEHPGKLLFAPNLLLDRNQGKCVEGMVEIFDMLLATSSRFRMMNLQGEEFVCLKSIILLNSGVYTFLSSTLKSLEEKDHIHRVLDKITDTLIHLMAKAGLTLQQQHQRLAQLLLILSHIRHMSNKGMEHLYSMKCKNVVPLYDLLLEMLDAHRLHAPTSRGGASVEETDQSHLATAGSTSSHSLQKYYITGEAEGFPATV
# INS1 = assay: beta cell apoptosis inhibitors, cytokine rescue, dose response, luminescence, retest (AID 449756); format: functional, cell-based; conditions: Rattus norvegicus;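 note: cell death triggered by IL-1 beta plus TNF-alpha plus IFN-gamma mixture; protective hits raise ATP signal compared with cytokine alone wells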
# [1] = Luminescence Cell-Based Dose Retest to Confirm Inhibitors of Cancer Stem Cells. [Related pubchem assays (depositor defined):AID2717, AID2721]; format: functional, Homo sapiens; conditions: Homo sapiens
# Nonstructural protein 1 = Nonstructural protein 1 (Influenza A virus, UniProt Q194T2); format: functional, Influenza A virus (A/California/07/2009(H1N1))
# [2] = molecular target: T2, Voltage-gated N-type calcium channel alpha-1B subunit/Amyloid beta A4 precursor protein-binding family A member 1 (Homo sapiens, UniProt Q00975+Q02410); format: protein assay
# [3] = molecular target: T2, Voltage-gated N-type calcium channel alpha-1B subunit/Amyloid beta A4 precursor protein-binding family A member 1; format: protein assay; remark: listed apart in the source
# [4] = inhibitors of firefly luciferase expression or activity, dose response, H4 neuroglioma cells, luminescence (AID 1990); format: functional, cell-based
# [5] = inhibitors of SNCA 5'UTR-driven reporter translation, confirmation, H4 neuroglioma cells, luminescence (AID 1988); format: functional, cell-based
# [6] = Luminescence Cell-Based Dose Response HTS to Identify Inhibitors of 5'UTR Stem-Loop Driven Prion Protein mRNA Translation in H4 Neuroglioblastoma Cells. [Related pubchem assays: 1827 (Project Summary), 1813 (Primary HTS)]; format: functional
# [7] = molecular target: 5-hydroxytryptamine receptor 2A (Mus musculus, UniProt P35363); format: functional, cell-based;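 note: CHO-K1 cells with tagged receptor and beta-arrestin; agonist potency measured as compound-induced activation of the receptor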
# Mu-type opioid receptor = Mu-type opioid receptor (Homo sapiens, UniProt P35372); format: functional, cell-based;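 note: U2OS cells with beta-arrestin recruitment to OPRM1 by beta-gal complementation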
# [8] = MC4R antagonists, dose response, counter-screen for LGR2 antagonist project, cell-based, plate reader, cherry pick (AID 743444); format: functional;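 note: transfected HEK 293 cells stimulated with alpha-MSH peptide; potency of inhibitors of the alpha-MSH evoked signal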
# [9] = HEK293 cell cytotoxicity, dose response, cytotoxicity control, plate reader, cherry-picked samples (AID 743446); format: functional, cell-based
# [10] = cytotoxicity in HEK-293T cells, dose response, cytotoxicity control for TCR NF-kB inhibitor project, luminescence, T-cell screen hits (AID 489026); format: functional, cell-based;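 note: cells exposed to compound about 14 hours before the viability readout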
# [11] = molecular target: T3, Small ubiquitin-related modifier 1 (Homo sapiens, UniProt P63165); assay: inhibitors of SUMO1 partner interactions, dose response, biochemical, FRET (AID 624383); format: functional; conditions: read-out: IC50_Mean
# [12] = molecular target: T3, Small ubiquitin-related modifier 1; assay: inhibitors of SUMO1 peptide binding, dose response, biochemical, fluorescence polarization, uHTS hits (AID 624382); format: functional; conditions: read-out: IC50_Mean
# [13] = molecular target: Heat shock protein HSP 90-alpha (Homo sapiens, UniProt P07900); format: functional, organism-based
# T2 sequence (Q00975 whole entry): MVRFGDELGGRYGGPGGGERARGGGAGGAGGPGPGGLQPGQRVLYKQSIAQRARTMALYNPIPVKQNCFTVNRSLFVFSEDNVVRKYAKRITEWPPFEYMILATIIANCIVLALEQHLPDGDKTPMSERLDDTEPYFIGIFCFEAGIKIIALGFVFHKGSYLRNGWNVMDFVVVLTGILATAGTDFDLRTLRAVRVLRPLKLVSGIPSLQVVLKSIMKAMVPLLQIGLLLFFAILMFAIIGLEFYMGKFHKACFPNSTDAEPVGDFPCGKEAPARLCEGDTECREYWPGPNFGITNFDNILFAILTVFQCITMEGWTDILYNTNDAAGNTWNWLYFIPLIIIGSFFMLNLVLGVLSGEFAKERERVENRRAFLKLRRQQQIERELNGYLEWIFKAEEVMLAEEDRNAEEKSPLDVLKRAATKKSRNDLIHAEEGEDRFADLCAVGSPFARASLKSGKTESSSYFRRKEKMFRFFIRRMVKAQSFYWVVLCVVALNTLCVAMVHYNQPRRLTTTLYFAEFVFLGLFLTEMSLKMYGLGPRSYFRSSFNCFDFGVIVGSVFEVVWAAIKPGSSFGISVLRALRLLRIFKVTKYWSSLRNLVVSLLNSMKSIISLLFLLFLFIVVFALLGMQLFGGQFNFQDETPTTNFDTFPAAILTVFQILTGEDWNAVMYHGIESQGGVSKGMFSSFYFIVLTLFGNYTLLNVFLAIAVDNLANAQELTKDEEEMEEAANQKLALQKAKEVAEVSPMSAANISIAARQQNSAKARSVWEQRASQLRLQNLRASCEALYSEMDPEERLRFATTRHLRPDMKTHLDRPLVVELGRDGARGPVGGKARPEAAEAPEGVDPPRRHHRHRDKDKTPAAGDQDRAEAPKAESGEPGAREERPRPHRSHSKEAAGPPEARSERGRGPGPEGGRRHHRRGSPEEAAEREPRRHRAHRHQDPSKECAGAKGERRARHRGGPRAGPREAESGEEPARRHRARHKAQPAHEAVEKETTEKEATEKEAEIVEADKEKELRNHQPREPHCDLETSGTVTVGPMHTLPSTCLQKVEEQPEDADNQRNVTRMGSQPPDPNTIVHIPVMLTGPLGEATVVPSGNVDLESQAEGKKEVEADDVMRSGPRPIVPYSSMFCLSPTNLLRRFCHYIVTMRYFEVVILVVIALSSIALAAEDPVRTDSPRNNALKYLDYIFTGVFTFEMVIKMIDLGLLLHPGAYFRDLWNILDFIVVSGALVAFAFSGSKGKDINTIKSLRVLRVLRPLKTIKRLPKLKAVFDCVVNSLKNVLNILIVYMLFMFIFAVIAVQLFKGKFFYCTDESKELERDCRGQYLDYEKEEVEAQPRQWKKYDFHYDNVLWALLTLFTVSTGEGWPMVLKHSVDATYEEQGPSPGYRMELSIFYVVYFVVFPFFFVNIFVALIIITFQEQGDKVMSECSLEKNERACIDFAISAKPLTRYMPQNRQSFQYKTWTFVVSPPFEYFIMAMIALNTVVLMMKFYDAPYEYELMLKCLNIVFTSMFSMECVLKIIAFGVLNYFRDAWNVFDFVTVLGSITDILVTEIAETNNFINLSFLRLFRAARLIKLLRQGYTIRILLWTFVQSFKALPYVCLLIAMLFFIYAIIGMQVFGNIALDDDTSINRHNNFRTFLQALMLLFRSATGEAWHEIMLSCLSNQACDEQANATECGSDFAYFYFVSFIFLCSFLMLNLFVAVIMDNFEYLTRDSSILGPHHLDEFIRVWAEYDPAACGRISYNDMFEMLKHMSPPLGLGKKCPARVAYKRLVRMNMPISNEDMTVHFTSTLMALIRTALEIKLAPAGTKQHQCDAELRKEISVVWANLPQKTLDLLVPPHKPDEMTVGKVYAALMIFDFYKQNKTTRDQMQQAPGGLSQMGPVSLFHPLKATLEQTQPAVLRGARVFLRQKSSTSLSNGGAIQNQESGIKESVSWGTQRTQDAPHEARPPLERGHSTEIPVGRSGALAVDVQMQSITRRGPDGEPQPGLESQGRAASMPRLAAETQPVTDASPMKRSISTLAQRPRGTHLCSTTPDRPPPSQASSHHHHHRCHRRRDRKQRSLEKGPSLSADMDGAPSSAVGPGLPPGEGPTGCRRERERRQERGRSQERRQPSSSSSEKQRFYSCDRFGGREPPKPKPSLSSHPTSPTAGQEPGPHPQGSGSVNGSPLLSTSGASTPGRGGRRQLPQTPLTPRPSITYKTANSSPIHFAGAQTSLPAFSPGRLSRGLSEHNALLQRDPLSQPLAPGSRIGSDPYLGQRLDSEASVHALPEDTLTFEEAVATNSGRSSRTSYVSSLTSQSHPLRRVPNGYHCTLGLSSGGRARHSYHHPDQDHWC
# T2 sequence (Q02410 whole entry): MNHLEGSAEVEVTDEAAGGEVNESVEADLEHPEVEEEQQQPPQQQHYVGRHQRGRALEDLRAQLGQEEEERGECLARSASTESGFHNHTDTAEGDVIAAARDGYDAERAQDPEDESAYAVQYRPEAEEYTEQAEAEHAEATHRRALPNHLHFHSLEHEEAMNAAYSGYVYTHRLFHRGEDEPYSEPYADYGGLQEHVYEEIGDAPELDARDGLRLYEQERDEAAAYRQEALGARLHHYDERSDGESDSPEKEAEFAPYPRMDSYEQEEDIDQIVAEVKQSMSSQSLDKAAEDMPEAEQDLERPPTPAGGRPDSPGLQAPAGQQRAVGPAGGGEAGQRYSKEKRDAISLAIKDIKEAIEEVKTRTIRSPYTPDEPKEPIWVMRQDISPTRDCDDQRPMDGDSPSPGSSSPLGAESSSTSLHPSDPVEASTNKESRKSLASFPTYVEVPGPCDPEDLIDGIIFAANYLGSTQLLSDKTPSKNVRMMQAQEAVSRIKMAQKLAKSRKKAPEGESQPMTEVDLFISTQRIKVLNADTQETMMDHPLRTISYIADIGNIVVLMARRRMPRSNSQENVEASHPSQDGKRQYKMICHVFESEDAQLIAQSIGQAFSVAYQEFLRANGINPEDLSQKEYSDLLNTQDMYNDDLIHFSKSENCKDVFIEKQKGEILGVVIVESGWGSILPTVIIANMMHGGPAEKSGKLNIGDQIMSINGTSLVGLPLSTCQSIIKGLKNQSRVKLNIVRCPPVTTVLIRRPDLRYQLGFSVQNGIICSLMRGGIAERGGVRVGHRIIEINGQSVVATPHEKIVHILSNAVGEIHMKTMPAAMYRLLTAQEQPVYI
# Sequence of 5-hydroxytryptamine receptor 2A (P35363 whole entry): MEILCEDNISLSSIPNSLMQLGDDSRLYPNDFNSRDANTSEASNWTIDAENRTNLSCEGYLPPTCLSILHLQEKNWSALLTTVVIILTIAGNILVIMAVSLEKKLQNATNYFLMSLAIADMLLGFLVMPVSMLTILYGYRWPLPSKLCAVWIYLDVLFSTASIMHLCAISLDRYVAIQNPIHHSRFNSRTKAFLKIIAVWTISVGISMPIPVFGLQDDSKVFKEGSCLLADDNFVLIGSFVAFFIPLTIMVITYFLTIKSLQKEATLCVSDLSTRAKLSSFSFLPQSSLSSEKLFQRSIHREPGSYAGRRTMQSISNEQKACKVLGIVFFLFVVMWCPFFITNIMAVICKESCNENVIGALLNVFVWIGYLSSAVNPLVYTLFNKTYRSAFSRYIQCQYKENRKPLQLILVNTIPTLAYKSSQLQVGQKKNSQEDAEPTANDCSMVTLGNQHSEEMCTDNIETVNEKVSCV
# Sequence of Mu-type opioid receptor (P35372 whole entry): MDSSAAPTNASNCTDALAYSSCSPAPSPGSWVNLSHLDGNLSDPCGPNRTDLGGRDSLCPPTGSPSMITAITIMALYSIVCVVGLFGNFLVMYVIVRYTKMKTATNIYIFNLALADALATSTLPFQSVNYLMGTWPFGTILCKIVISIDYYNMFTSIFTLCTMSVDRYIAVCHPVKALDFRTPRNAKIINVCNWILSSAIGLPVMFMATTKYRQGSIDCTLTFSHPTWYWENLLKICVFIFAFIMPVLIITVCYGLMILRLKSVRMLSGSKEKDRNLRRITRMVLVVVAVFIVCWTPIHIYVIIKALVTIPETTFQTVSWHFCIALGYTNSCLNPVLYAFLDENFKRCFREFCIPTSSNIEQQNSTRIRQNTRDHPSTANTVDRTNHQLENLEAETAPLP
# Sequence of Nonstructural protein 1 (Q194T2 whole entry): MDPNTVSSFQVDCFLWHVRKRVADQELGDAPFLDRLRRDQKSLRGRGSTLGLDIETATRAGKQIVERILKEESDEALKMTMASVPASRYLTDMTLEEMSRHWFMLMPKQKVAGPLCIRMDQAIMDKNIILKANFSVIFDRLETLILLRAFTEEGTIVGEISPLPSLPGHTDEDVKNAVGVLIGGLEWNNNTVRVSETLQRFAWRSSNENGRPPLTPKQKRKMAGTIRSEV
# T3 sequence (P63165 whole entry): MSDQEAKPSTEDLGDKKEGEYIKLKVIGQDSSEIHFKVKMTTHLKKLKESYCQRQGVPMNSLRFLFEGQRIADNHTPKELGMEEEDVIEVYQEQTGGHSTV
# Sequence of Estrogen receptor beta (Q92731 whole entry): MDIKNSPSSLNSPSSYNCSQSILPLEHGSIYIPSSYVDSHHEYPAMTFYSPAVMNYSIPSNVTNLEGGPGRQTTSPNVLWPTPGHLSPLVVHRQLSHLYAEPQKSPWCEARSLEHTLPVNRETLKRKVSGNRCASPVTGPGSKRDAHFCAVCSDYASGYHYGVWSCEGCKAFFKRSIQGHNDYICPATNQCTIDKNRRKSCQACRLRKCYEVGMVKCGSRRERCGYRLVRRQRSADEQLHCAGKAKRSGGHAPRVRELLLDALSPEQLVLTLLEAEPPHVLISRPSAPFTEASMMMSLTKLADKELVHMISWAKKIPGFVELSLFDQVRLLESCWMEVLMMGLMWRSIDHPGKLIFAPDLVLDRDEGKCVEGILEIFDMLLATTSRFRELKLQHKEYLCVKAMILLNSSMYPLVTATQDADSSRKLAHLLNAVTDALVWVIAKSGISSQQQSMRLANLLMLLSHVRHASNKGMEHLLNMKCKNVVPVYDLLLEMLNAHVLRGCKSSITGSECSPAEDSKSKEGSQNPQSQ
smiles,measurement,setting,value
O=C(c1ccc(CS(=O)(=O)c2ccccc2)o1)N1CCC2(CC1)OCCO2,IC50,Estrogen receptor beta,4.05 µM (not active)
C=CCn1c(COc2cccc(C)c2)nnc1SCC(=O)NC(=O)NCc1ccco1,IC50,Estrogen receptor,14.8 µM (active)
Nc1ccccc1N/C=C1\C(=O)NC(=O)N(CCC2=CCCCC2)C1=O,AC50,INS1,28.2 µM (active)
same,IC50,Estrogen receptor,> 50 µM (not active)
same,AC50,[1],81.2 µM (active)
COc1ccc(NC(=O)CSc2nn3c(=O)c(C)nnc3s2)cc1,IC50,Nonstructural protein 1,8.25 µM (active)
CCn1ccnc1CNCc1cn(-c2cc(C)ccc2C)nc1-c1ccccc1,IC50,Nonstructural protein 1,11.8 µM (active)
CC1=C(C(=O)O)N2C(=O)C(NC(=O)c3ccccc3Cl)C2SC1 (stereo unspecified),IC50,[2],> 50 µM (inactive)
same,IC50,[3],0.749 µM (active)
Cc1cccc(OCC(O)CN2CCN(c3ccccn3)CC2)c1C (stereo unspecified),EC50,[4],> 120 µM (not active)
same,EC50,[5],> 120 µM (not active)
same,EC50,[6],> 120 µM (not active)
same,EC50,[7],25.4 µM (inactive)
same,EC50,Mu-type opioid receptor,92.5 µM (inactive)
CN(c1ccccc1)S(=O)(=O)c1cccc(NC(=O)c2cc(=O)c3ccccc3o2)c1,AC50,[8],38.2 µM (active)
same,AC50,[9],> 52 µM (inactive)
COc1ccc(CN2CCN(C(=O)c3ccco3)CC2)cc1,EC50,[7],1.53 µM (active)
same,EC50,Mu-type opioid receptor,92.5 µM (inactive)
COc1cc(-c2noc(C)c2/C=C/c2cccc([N+](=O)[O-])c2)cc(OC)c1OC,IC50,[10],68.5 µM (inactive)
O=C(c1ccco1)N1CCN(Cc2ccccc2F)CC1,EC50,[7],7.48 µM (active)
same,EC50,Mu-type opioid receptor,92.5 µM (inactive)
O=C(COC(=O)c1ccc(Cl)c(S(=O)(=O)N2CCOCC2)c1)Nc1ccc2[nH]c(O)nc2c1,IC50,[11],15.8 µM (active)
same,IC50,[12],> 66.6 µM (inactive)
CCOC(=O)c1ccc(N2C(=O)C=CC2=O)cc1,AC50,[13],0.691 µM (active)
same,IC50,[2],2.46 µM (active)
same,IC50,[3],6.05 µM (active)
